{
  "source": "patent US20080014192A1",
  "about": "“Methods For The Diagnosis And Treatment of Fungal Infections Caused By Microorganisms Producing Glucosylceramide” (priority 2006, published 2008)",
  "key": {"[1]": {"system": "fungal cells", "settings": "Ma et al., 2006 and Alvarez et al.; cited from earlier work"}, "[2]": {"system": "alveolar macrophages", "assay": "Alveolar macrophage depletion, count in bronchoalveolar lavage after intranasal liposomes", "type": "in vivo, mouse", "settings": "P<0.05", "experimental": "Alveolar macrophage depletion. Liposomes containing clodronate (dichloromethylenediphosphonic acid disodium salt) and empty liposomes used as control, were prepared as described previously (Van Rooijen, 1994). Briefly, 8 mg cholesterol (Avanti Polar Lipids) and 86 mg L-alpha phosphatidylcholine (Avanti Polar Lipids) were dissolved in chloroform, which was then slowly evaporated. The thin, filmy layer was resuspended in 10 ml of PBS or 0.6M clodronate. The mixture was exposed to N2 gas and incubated 2 hours at room temperature with gentle shaking. The mixture was then sonicated and incubated another 2 hours to allow liposome swelling. The solution was centrifuged at 10,000 g for 15 minutes and the liposomes containing clodronate were collected and washed twice with sterile PBS. The liposomes were kept at 4° C. under N2 until use for a maximum of 2 weeks.\n(§1) Alveolar macrophage depletion was evaluated by intranasally introducing 60 μl of PBS, empty liposome or liposomes containing clodronate into the mouse and performing bronchoalveolar lavage at 48 hours or 6 days. […] The collected fluid was spun down and alveolar macrophages were counted. […]\nPharmacological depletion of alveolar macrophage. […] After 48 hours or 7 days from the injection, mice were sacrificed, the bronco alveolar lavage (BAL) fluid was collected and viability of alveolar macrophages assessed microscopically."}, "[3]": {"system": "Cn WT (C. neoformans var. grubii serotype A H99)", "assay": "Tissue fungal burden (CFU) in Tgε26 mice infected with Cn wild-type", "type": "in vivo, Cryptococcus neoformans", "experimental": "(§2) Alveolar macrophage depletion was evaluated by intranasally introducing 60 μl of PBS, empty liposome or liposomes containing clodronate into the mouse and performing bronchoalveolar lavage at 48 hours or 6 days. Bronchoalveolar lavage was done by inserting a stub adapter in the trachea of the mouse and rinsing the alveolar spaces 10 times using 0.5 ml PBS (pH=7.4) for each wash. The collected fluid was spun down and alveolar macrophages were counted. Lavage samples were taken from two mice per time point per group. Experimental groups were divided into five mice each receiving PBS (control group), empty liposome (control group) or liposome encapsulated clodronate administered mice. Two days before infection with yeast, the mice were anesthesized and given 60 μl of PBS, empty liposomes or clodronate-encapsulated liposomes. After 48 hrs, mice were infected with the yeast cells as described above. Mice continued to receive PBS, liposome or clodronate treatment weekly.\n(§3) Tissue fungal burden. […] Organs were homogenized in sterile PBS, using the Stomacher 80 (Lab system, Fisher Scientific, Pittsburgh, Pa., USA) for 2 minutes. Serial dilutions were then plated onto YPD plates and colony-forming units were counted and recorded. Statistical analysis was performed using Student's t test, and a p value of less than 0.05 was considered to be significant.\nTissue burden studies. […]"}, "[4]": {"system": "Cn Δgcs1 mutant", "assay": "Tissue fungal burden (CFU) in Tgε26 mice infected with Cn Δgcs1", "type": "in vivo, Cryptococcus neoformans", "experimental": "as §2, §3\nTissue burden studies. To address the effect of macrophage depletion on the dissemination of Δgcs1 cells, we performed tissue burden studies of lung, brain, spleen, and kidney upon infection of Cn WT or Δgcs1 strain."}, "[5]": {"system": "Cn Δgcs1 mutant", "assay": "Survival of Tgε26 mice infected intranasally with Cn Δgcs1", "type": "in vivo, Cryptococcus neoformans", "experimental": "(§4) Animal studies. Four to six-week-old Tgε26 mice (Wang et al., 1994; Wang et al., 1997), available in our Animal Core Facility, Medical University of South Carolina, Charleston, S.C., were used for this study. Mice were anesthetized with an intraperitoneal injection of 60 μl xylaxine/ketamine mixture containing 5 mg xylazine and 95 mg ketamine per kilogram of body weight. Wild-type and mutant strains of Cn were grown in YPD media for 24 hrs at 30° C. The yeast cells were harvested and washed three times by centrifugation at 3000 rpm for 10 minutes and resuspended in sterile PBS (pH=7.4) at a concentration of 2.5×10^7 cells/ml. Mice were infected intranasally with 20 μl containing 5×10^5 wild-type, Δgcs1 or Δgcs1+GCS1 cells. Mice were fed ad libitum and monitored by twice-daily inspections. Mice that appeared moribund, in pain or with clinical signs of meningoencephalitis were sacrificed using CO2 inhalation followed by cervical dislocation. […] Survival data from the mice experiment were analyzed by Kluskal-Wallis test. […]\nas §1"}, "[6]": {"system": "Cn WT (C. neoformans var. grubii serotype A H99)", "assay": "Survival of Tgε26 mice infected intranasally with Cn wild-type", "type": "in vivo, Cryptococcus neoformans", "settings": "Cn WT intranasal, weekly intranasal liposome treatment, no significant change vs controls", "experimental": "as §4, §1"}, "[7]": {"system": "Cn Δgcs1 mutant", "assay": "Lung histopathology of Tgε26 mice infected with Cn Δgcs1", "type": "in vivo, Cryptococcus neoformans", "settings": "day 16 and day 36 of infection; vs empty liposome", "quoted_text": "Histological analyses. Organs were harvested and fixed for 48 hours in 37% formaldehyde, paraffin-embedded, sectioned and stained with movat, mucicarmine, or hematoxylin and eosin.\nHistopathology. To gain further insights in the host inflammatory response against Cn Δgcs1 cells in mice in which macrophages have been deleted, we performed a histology analysis on lungs of Tgε26 mice infected with Δgcs1 strain and receiving empty liposome or liposome containing clodronate."}},
  "data": [
    {"molecule": "CCN(CC)CCCC(C)Nc1ccnc2cc(Cl)ccc12", "note": "(stereo not drawn) [chloroquine]", "values": [
      {"measurement": "extrusion of fungal cells from the intracellular to the extracellular compartment", "setting": "[1]", "result": "promote extrusion of fungal cells"}
    ]},
    {"molecule": "O=P([O-])([O-])C(Cl)(Cl)P(=O)(O)O.[Na+].[Na+]", "note": "[clodronate, dichloromethylenediphosphonic acid disodium salt]", "values": [
      {"measurement": "decrease in number of alveolar macrophages (AMs)", "setting": "[2]; 48 hours after single intranasal 60 μl dose of liposome suspension, vs PBS- or empty liposome-treated mice", "result": 58, "unit": "%"},
      {"measurement": "reduction of AMs", "setting": "[2]; 7 days after single intranasal 60 μl dose of liposome suspension, vs control-treated mice", "result": 52, "unit": "%"},
      {"measurement": "tissue burden culture in the brain, Cn WT", "setting": "[3]; Tgε26 mice, FIG. 15B", "result": "reduction of tissue burden culture in the brain (FIG. 15B) but this difference was not statistically significant"},
      {"measurement": "tissue colonization of Cn WT cells in all organs analyzed", "setting": "[3]; lung, brain, spleen, kidney, vs PBS or empty liposome groups", "result": "No statistically significant differences"},
      {"measurement": "number of fungal cells in all organs analyzed, Δgcs1", "setting": "[4]; lung, brain, kidney, spleen, vs control treated groups, P<0.05", "result": "significantly lower number of fungal cells"},
      {"measurement": "reduction of lung Δgcs1 fungal load", "setting": "[4]; macrophage-depleted Tgε26 lungs, P<0.001", "result": "> 3000", "unit": "fold"},
      {"measurement": "delay in fungal growth in all other organs", "setting": "[4]; {}", "result": 14, "unit": "days"},
      {"measurement": "additional days of survival of infection by the Δgcs1 strain", "setting": "[5]; Tgε26 mice depleted of AMs", "result": "18 to 20", "unit": "days"},
      {"measurement": "average survival of Δgcs1-infected mice", "setting": "[5]; {}", "result": "76.6 ± 5.3", "unit": "days"},
      {"measurement": "average survival of Cn-infected mice", "setting": "[6]", "result": "12.8 ± 5.2", "unit": "days"},
      {"measurement": "lung histopathology, Δgcs1 cells", "setting": "[7]", "result": "few Δgcs1 cells in the lung parenchyma"}
    ]}
  ]
}
